Read-outs that look alike come from different tables or passages of the source.
Experiments:
[1] = tested on: HOP-62; assay: NCI DTP antiproliferative screen, lung HOP-62; assay type: cell-based, human
Protocol: (§1) The norindenoisoquinolines are examined for antiproliferative activity in the National Cancer Institute's Developmental Therapeutics Program (DTP) (Boyd & Paull, Some Practical Considerations and Applications of the National Cancer Institute In Vitro Anticancer Drug Discovery Screen. Drug Development Res. 1995, 34, 91-109; Shoemaker, The NCI60 Human Tumour Cell Line Anticancer Drug screen. Nat. Rev. Cancer 2006, 6, 813-823). Each compound is evaluated against approximately 55 human cell lines representing leukemia, melanoma, and cancers of the lung, colon, brain, breast, ovary, prostate and kidney. After an initial one-dose assay at a single high dose (10^−5 M), only compounds that satisfy the pre-determined threshold inhibition criteria are selected for further 5-dose assay.

[2] = tested on: HCT-116; assay: NCI DTP antiproliferative screen, colon HCT-116; assay type: cell-based, human
Protocol: as §1

[3] = tested on: SF-539; assay: NCI DTP antiproliferative screen, CNS SF-539; assay type: cell-based, human
Protocol: as §1

[4] = tested on: UACC-62; assay: NCI DTP antiproliferative screen, melanoma UACC-62; assay type: cell-based, human
Protocol: as §1

[5] = tested on: OVCAR-3; assay: NCI DTP antiproliferative screen, ovarian OVCAR-3; assay type: cell-based, human
Protocol: as §1

[6] = tested on: SN12C; assay: NCI DTP antiproliferative screen, renal SN12C; assay type: cell-based, human
Protocol: as §1

[7] = tested on: DU-145; assay: NCI DTP antiproliferative screen, prostate DU-145; assay type: cell-based, human
Protocol: as §1

[8] = tested on: all human cancer cell lines successfully tested; assay: NCI DTP antiproliferative screen, mean graph midpoint; assay type: cell-based; settings: average GI50 of all cell lines tested; values outside 10^-8 to 10^-4 M taken as the limits
Protocol: as §1

[9] = tested on: SR; assay: NCI DTP antiproliferative screen, leukemia SR; assay type: cell-based, human
Protocol: as §1

[10] = tested on: NCI-H460; assay: NCI DTP antiproliferative screen, non-small cell lung cancer NCI-H460; assay type: cell-based, human
Protocol: as §1

[11] = tested on: IGROVI; assay: NCI DTP antiproliferative screen, ovarian cancer IGROVI; assay type: cell-based, human
Protocol: as §1

[12] = tested on: MCF7; assay: NCI DTP antiproliferative screen, breast cancer MCF7; assay type: cell-based, human
Protocol: as §1

[13] = tested on: HCC-2998; assay: NCI DTP antiproliferative screen, colon cancer HCC-2998; assay type: cell-based, human
Protocol: as §1

[14] = tested on: COLO 205; assay: NCI DTP antiproliferative screen, colon cancer COLO 205; assay type: cell-based, human
Protocol: as §1

[15] = tested on: CAKI-1; assay: NCI DTP antiproliferative screen, renal cancer CAKI-1; assay type: cell-based, human
Protocol: as §1

[16] = tested on: ACHN; assay: NCI DTP antiproliferative screen, renal cancer ACHN; assay type: cell-based, human
Protocol: as §1

[17] = tested on: U251; assay: NCI DTP antiproliferative screen, CNS cancer U251; assay type: cell-based, human
Protocol: as §1

[18] = tested on: SF-295; assay: NCI DTP antiproliferative screen, CNS cancer SF-295; assay type: cell-based, human
Protocol: as §1

[19] = tested on: CCRF-CEM; assay: NCI DTP antiproliferative screen, leukemia CCRF-CEM; assay type: cell-based, human; settings: read-out: GI50 against leukemia CCRF-CEM
Protocol: as §1

[20] = tested on: RPMI-8226; assay: NCI DTP antiproliferative screen, leukemia RPMI-8226; assay type: cell-based, human; settings: read-out: GI50 against leukemia RPMI-8226
Protocol: as §1

[21] = tested on: MOLT-4; assay: NCI DTP antiproliferative screen, leukemia MOLT-4; assay type: cell-based, human; settings: read-out: GI50 against leukemia MOLT-4
Protocol: as §1

For `COc1cc2cnc3c(c2cc1OC)Cc1c-3cc2c(c1Cn1ccnc1)OCO2` [Compound 14c, 2,3-Dimethoxy-8,9-methylenedioxy-10-(1H-imidazol-yl)methyl-11H-indeno[1,2-c]isoquinoline], the GI50 [1] was 350 nM, the GI50 [2] was 160 nM and the GI50 [3] was 280 nM. The GI50 [4] was 210 nM, the GI50 ([4]; 1st run, read-out: GI50 Melanoma UACC-62) was 210 nM and the GI50 ([4]; 2nd run, read-out: GI50 Melanoma UACC-62) was 180 nM. It also gave a GI50 ([4]; Mean of runs, read-out: GI50 Melanoma UACC-62) of 200 nM, a GI50 [5] of 210 nM and a GI50 [6] of 600 nM. For the same molecule, the GI50 [7] was 260 nM, the GI50 ([7]; 1st run, read-out: GI50 Prostate Cancer DU-145) was 260 nM and the GI50 ([7]; 2nd run, read-out: GI50 Prostate Cancer DU-145) was 410 nM. The GI50 ([7]; Mean of runs, read-out: GI50 Prostate Cancer DU-145) was 330 nM, the “MGM (mean graph midpoint for growth inhibition)” value [8] was 0.52 µM and the GI50 ([9]; 1st run, read-out: GI50 Leukemia SR) was 12 nM. It also gave a GI50 ([9]; Mean of runs, read-out: GI50 Leukemia SR) of 12 nM, a GI50 ([9]; read-out: GI50 against leukemia SR) of 12 nM and a GI50 ([10]; 1st run) of 160 nM. It also gave a GI50 ([10]; 2nd run) of 110 nM, a GI50 ([10]; Mean of runs) of 130 nM and a GI50 ([11]; 1st run, read-out: GI50 Ovarian Cancer IGROVI) of 33 nM. For the same molecule, the GI50 ([11]; 2nd run, read-out: GI50 Ovarian Cancer IGROVI) was 210 nM, the GI50 ([11]; Mean of runs, read-out: GI50 Ovarian Cancer IGROVI) was 120 nM and the GI50 ([11]; read-out: GI50 against human ovarian cancer cell IGROVI) was 121 nM. The GI50 ([12]; 1st run, read-out: GI50 Breast Cancer MCF7) was 90 nM, the GI50 ([12]; 2nd run, read-out: GI50 Breast Cancer MCF7) was 89 nM and the GI50 ([12]; Mean of runs, read-out: GI50 Breast Cancer MCF7) was 90 nM. For the same molecule, the GI50 ([12]; read-out: GI50 against human breast cancer cell MCF-7) was 90 nM, the GI50 ([13]; 1st run) was 110 nM and the GI50 ([13]; 2nd run) was 2100 nM. It also gave a GI50 ([13]; Mean of runs) of 1100 nM, a GI50 ([14]; 1st run) of 760 nM and a GI50 ([14]; 2nd run) of 280 nM. It also gave a GI50 ([14]; Mean of runs) of 510 nM, a GI50 ([15]; 1st run) of 170 nM and a GI50 ([15]; 2nd run) of 400 nM. The GI50 ([15]; Mean of runs) was 290 nM, the GI50 ([16]; 1st run) was 270 nM and the GI50 ([16]; 2nd run) was 300 nM. It also gave a GI50 ([16]; Mean of runs) of 280 nM, a GI50 ([17]; 1st run) of 150 nM and a GI50 ([17]; 2nd run) of 170 nM. It also gave a GI50 ([17]; Mean of runs) of 160 nM, a GI50 ([18]; 1st run) of 160 nM and a GI50 ([18]; 2nd run) of 130 nM. It also gave a GI50 ([18]; Mean of runs) of 150 nM, a GI50 [19] of 37 nM and a GI50 [20] of 41 nM. The GI50 [21] was 60 nM.
